Structures are written as SMILES. “Also recorded” adds a separate entry of the source.

The subject of data set [1] is Fmr1−/− mice. As to the kind of experiment: Three-chamber social novelty preference test. Type of data set: in vivo. Particulars: bromide 250 mg/kg i.p. daily. Here is the method: (§1) Sodium bromide (anhydrous, Sigma-Aldrich, Saint-Quentin, France) dissolved in saline solution (NaCl, 0.9%) at the dose of 250 or 500 mg/kg, or vehicle (NaCl, 0.9%), was administered intraperitoneally once a day for 19 days in a volume of 20 ml/kg. On testing days, bromide was administered 30 min before behavioural assays. Bumetanide (Tocris, provided by Bio-Techne, Lille, France) dissolved in NaCl 0.9% at the dose of 0.5 mg/kg (Deidda et al, 2015) or vehicle was administered intraperitoneally once a day for 19 days in a volume of 20 ml/kg.
(§2) Behavioural assays started after a week of daily bromide (or bumetanide) treatment.
(§3) Three-chamber social novelty preference test.

Data set [2] deals with Shank3B−/− mice. Kind of data set: Three-chamber social novelty preference test. The class given is in vivo. The note with it: bromide 250 mg/kg i.p. daily. Here is the method: as §1, §2, §3
In data set [3] the test system is Fmr1−/− mice. As to the kind of experiment: Y-maze exploration. The note with it: bromide 250 mg/kg i.p. daily. The class given is in vivo. Here is the method: as §1, §2
Data set [4] relates to Shank3B−/− mice. As to the kind of experiment: Y-maze exploration. The class given is in vivo. The note with it: bromide 250 mg/kg i.p. daily. Here is the method: as §1, §2
For data set [5] the following is noted: literature statement (Romermann et al, 2017); cited from earlier work.
The next data set relates to Oprm1−/− mice. As to the kind of experiment: Three-chamber social novelty preference test. The note with it: bromide 125, 250, 500 mg/kg i.p. daily vs saline.

As for `[Br-].[Na+]` [bromide, Sodium bromide], in the data set with Fmr1−/− mice [1] (Fmr1 knockout or wild-type), the “number of close contacts with the mouse” value is given as “no significant effect” and the “preferential time spent in the compartment with the mouse” value is given as “no significant effect”. For the same compound, in the data set on Fmr1−/− mice [1] (Fmr1−/− mice), the “duration of close contacts with the mouse versus the toy” value is listed as “increased; also recorded: restored” and the “preference in time spent in close contact with the mouse versus the toy” value is listed as “increased; also recorded: restored”. Besides, in the data set on Shank3B−/− mice [2] (Shank3B line), the “number of close contacts with the mouse versus the toy” value is recorded as “no significant effect” and the “preferential time spent in the compartment with the mouse versus the toy” value was “no significant effect”. In addition, in the data set on Shank3B−/− mice [2] (Shank3B−/− mice), the “duration of close contacts with the mouse versus the toy” value was “increased; also recorded: restored” and the “preference in time spent in close contact with the mouse versus the toy” value is “increased; also recorded: restored”. The “perseverative same arm returns (cognitive stereotypies)” value in the data set with Fmr1−/− mice [3] is on record as “efficiently reduced; also recorded: relieves; also recorded: suppressed”. For the same compound, the “rate of alternate arm returns” value in the data set with Shank3B−/− mice [4] (Shank3B line) is on record as “not modified”. Moreover, in the data set with Shank3B−/− mice [4] (Shank3B−/− mice), the “perseverative same arm returns (cognitive stereotypies)” value was “normalized; also recorded: relieves; also recorded: suppressed” and the “rate of spontaneous alternation” value is “rescued”. In addition, the “ability to cross the blood brain barrier” value in data set [5] is “easily cross this barrier”. Further, in the data set with Oprm1−/− mice, the “difference (mouse over toy) in nose (close) contact duration” value is on record as “restored difference”, the “difference (mouse over toy) in number of nose (close) contacts” value was “restored difference”, the “difference (mouse over toy) in time spent in nose (close) contact” value is listed as “restored difference” and the “difference (preference for the mouse over the toy) in time spent in compartments” value was “restored difference”. In the data set on Oprm1−/− mice, the “social preference (overall)” value is on record as “restored social preference; also recorded: increased social preference; also recorded: restored preference for the living mouse over the toy”.

Source of the values: patent US12036237B2, “Bromide source for use in treating autism spectral disorder” (INSERM (INSTITUT NATIONAL DE LA SANTE ET DE LA RECHERCHE …, priority 2016, dated 2024).
